In patent US20230374034A1, “NOVEL BICYCLIC COMPOUNDS” (PRISM BIOLAB CO., LTD., priority 2020, published 2023) one finds inhibition data, which are given here for 23 compounds.

For one assay, the system named is NICD (Notch intracellular domain) CSL-bla reporter in HeLa cells. Description: Notch assay (CellSensor T-REx NICD CSL-bla HeLa beta-lactamase reporter; Method 1 / Method 2). Type of assay: cell-based. The conditions noted are these: Homo sapiens, 10 μM compound, Method 1 (10× compound prepared in assay medium, added to plated cells), read-out: inhibiton (%) at 10 μM. In outline:
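HeLa cells carrying doxycycline-inducible NICD and a CSL-driven beta-lactamase reporter, 10^3 cells/well, were treated with compound plus doxycycline for 16-20 h at 37 °C. CCF4-AM substrate was loaded for 4 h at room temperature; background-subtracted blue (460 nm)/green (530 nm) emission ratio taken per well.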
Take `CCCC[C@H]1C(=O)N(CCC(C)C)CC2N(C(=O)OCc3cccc4ccccc34)O[C@H](CC(N)=O)C(=O)N21` (stereo partly drawn) [Compound I-20, (3R,6S)-naphthalen-1-ylmethyl 3-(2-amino-2-oxoethyl)-6-butyl-8-isopentyl-4,7-dioxohexahydropyrazino[2,1-c][1,2,4]oxadiazine-1(6H)-carboxylate]: the inhibition at 10 µM is 66.1%. Consider `CCCC[C@@H]1ON(C(=O)OCc2ccccc2)C2CN(CCCC)C(=O)[C@H](Cc3ccc(O)cc3)N2C1=O` (stereo partly drawn) [Compound I-8, (3S,6S)-benzyl 3,8-dibutyl-6-(4-hydroxybenzyl)-4,7-dioxohexahydropyrazino[2,1-c][1,2,4]oxadiazine-1(6H)-carboxylate], for which the inhibition at 10 µM was determined as 60.2%. Take `CC(C)C[C@@H]1ON(C(=O)OCc2cccc3ccccc23)C2CN(C(C)C)C(=O)[C@H](Cc3ccc(O)cc3)N2C1=O` (stereo partly drawn) [Compound I-24, (3S,6S)-naphthalen-1-ylmethyl 6-(4-hydroxybenzyl)-3-isobutyl-8-isopropyl-4,7-dioxohexahydropyrazino[2,1-c][1,2,4]oxadiazine-1(6H)-carboxylate]: the inhibition at 10 µM was found to be 68.1%. Still for that read-out and setting: with `CC(C)N1CC2N(C(=O)OCc3cccc4ccccc34)O[C@H](Cc3ccccc3)C(=O)N2[C@@H](Cc2ccc(O)cc2)C1=O` (stereo partly drawn) [Compound I-17, (3R,6S)-naphthalen-1-ylmethyl 3-benzyl-6-(4-hydroxybenzyl)-8-isopropyl-4,7-dioxohexahydropyrazino[2,1-c][1,2,4]oxadiazine-1(6H)-carboxylate] the figure was 88%.

The assay is the same for the next values; noted with them: Homo sapiens, 10 μM compound, Method 2 (40 nL of 1000× compound added to plate with Echo), read-out: inhibiton (%) at 10 μM.
`CC(C)C[C@@H](C(=O)NCCc1ccccc1)N1CC2N(C(=O)OCCc3ccc(O)cc3)O[C@H](Cc3ccccc3)C(=O)N2[C@@H](C)C1=O` (stereo partly drawn) [Compound I-121, 4-hydroxyphenethyl (3R,6S)-3-benzyl-6-methyl-8-((S)-4-methyl-1-oxo-1-(phenethylamino)pentan-2-yl)-4,7-dioxohexahydropyrazino [2,1-c][1,2,4]oxadiazine-1(6H)-carboxylate]: the inhibition at 10 µM was 63.3%. On to `CC[C@H](C)CN1CC2N(C(=O)OCC(C)C)O[C@H](CC3CCCCC3)C(=O)N2[C@@H](CCCCN)C1=O` (stereo partly drawn) [Compound I-40, (3R,6S)-isobutyl 6-(4-aminobutyl)-3-(cyclohexylmethyl)-8-((S)-2-methylbutyl)-4,7-dioxohexahydropyrazino[2,1-c][1,2,4]oxadiazine-1(6H)-carboxylate], for which the inhibition at 10 µM turned out to be 124%.

For the compound `CC(C)C[C@H]1C(=O)N(C2CCN(C)CC2)CC2N(C(=O)OCc3ccccc3)O[C@H](CC3CCCCC3)C(=O)N21` (stereo partly drawn) [Compound I-138, benzyl (3R,6S)-3-(cyclohexylmethyl)-6-isobutyl-8-(1-methylpiperidin-4-yl)-4,7-dioxohexahydropyrazino[2,1-c][1,2,4]oxadiazine-1(6H)-carboxylate], the inhibition at 10 µM worked out at 98.2%. The same measure, in the same setting: with `C[C@H]1C(=O)N(CCC(c2ccccc2)c2ccccc2)CC2N(C(=O)OCC3CCCCC3)O[C@H](CCCNC(=N)N)C(=O)N21` (stereo partly drawn) [Compound I-53, (3R,6S)-cyclohexylmethyl 8-(3,3-diphenylpropyl)-3-(3-guanidinopropyl)-6-methyl-4,7-dioxohexahydropyrazino[2,1-c][1,2,4]oxadiazine-1(6H)-carboxylate] the figure was 53.6%; with `NC(=O)C[C@H]1C(=O)N(CCc2cccc3ccccc23)CC2N(C(=O)OCC3CCCCC3)O[C@H](Cc3ccc(O)cc3)C(=O)N21` (stereo partly drawn) [Compound I-49, (3R,6S)-cyclohexylmethyl 6-(2-amino-2-oxoethyl)-3-(4-hydroxybenzyl)-8-(2-(naphthalen-1-yl)ethyl)-4,7-dioxohexahydropyrazino[2,1-c][1,2,4]oxadiazine-1(6H)-carboxylate], 92.6%; with `O=C1[C@H](CO)N2C(=O)[C@@H](Cc3ccc(O)cc3)ON(C(=O)OCC3CCCCC3)C2CN1CCc1cccc2ccccc12` (stereo partly drawn) [Compound I-47, (3R,6S)-cyclohexylmethyl 3-(4-hydroxybenzyl)-6-(hydroxymethyl)-8-(2-(naphthalen-1-yl)ethyl)-4,7-dioxohexahydropyrazino[2,1-c][1,2,4]oxadiazine-1(6H)-carboxylate], 71.4%. On to `CCCCCOC(=O)N1O[C@H](Cc2ccccc2)C(=O)N2C1CN([C@@H](CC(C)C)C(=O)NCCCc1ccc(O)cc1)C(=O)[C@@H]2CCC(N)=O` (stereo partly drawn) [Compound I-127, pentyl (3R,6S)-6-(3-amino-3-oxopropyl)-3-benzyl-8-((S)-1-((3-(4-hydroxyphenyl)propyl)amino)-4-methyl-1-oxopentan-2-yl)-4,7-dioxohexahydropyrazino [2,1-c][1,2,4]oxadiazine-1(6H)-carboxylate], for which the inhibition at 10 µM is 62.1%. The same measure, in the same setting: the result for `C[C@H]1ON(C(=O)OCCc2ccccc2)C2CN([C@@H](Cc3ccccc3)C(=O)NCCC(N)=O)C(=O)[C@H](Cc3ccccc3)N2C1=O` (stereo partly drawn) [Compound I-85, phenethyl (3R,6S)-8-((S)-1-((3-amino-3-oxopropyl)amino)-1-oxo-3-phenylpropan-2-yl)-6-benzyl-3-methyl-4,7-dioxohexahydro-pyrazino[2,1-c] [1,2,4]oxadiazine-1(6H)-carboxylate] reads 66.5%; that for `CC(C)CCOC(=O)N1O[C@H](C)C(=O)N2C1CN([C@@H](Cc1ccccc1)C(=O)NCCCC(N)=O)C(=O)[C@@H]2Cc1ccccc1` (stereo partly drawn) [Compound I-87, isopentyl (3R,6S)-8-((S)-1-((4-amino-4-oxobutyl)amino)-1-oxo-3-phenylpropan-2-yl)-6-benzyl-3-methyl-4,7-dioxohexahydro-pyrazino[2,1-c] [1,2,4]oxadiazine-1(6H)-carboxylate], 58.3%. On the same count and under the same terms, with `CC(C)C[C@H]1ON(C(=O)OCc2ccccc2)C2CN(C3CCN(C)CC3)C(=O)[C@H](CCCCNC3CN(C(=O)OC(C)(C)C)C3)N2C1=O` (stereo partly drawn) [Compound I-146, benzyl (3R,6S)-6-(4-((1-(tert-butoxycarbonyl)azetidin-3-yl)amino)butyl)-3-isobutyl-8-(1-methylpiperidin-4-yl)-4,7-dioxohexahydropyrazino[2,1-c][1,2,4]oxadiazine-1(6H)-carboxylate] the figure was 105%; with `CC(C)C[C@H]1ON(CCCC2CCN(S(C)(=O)=O)CC2)C2CN(C3CCN(C)CC3)C(=O)[C@H](CC(C)C)N2C1=O` (stereo partly drawn) [Compound I-151, (3R,6S)-3,6-diisobutyl-8-(1-methylpiperidin-4-yl)-1-(3-(1-(methylsulfonyl)piperidin-4-yl)propyl) tetrahydropyrazino [2,1-c][1,2,4]oxadiazine-4,7(3H,6H)-dione], 88%.

With `CC(C)C[C@H]1ON(CCCc2ccccc2)C2CN(C3CCNCC3)C(=O)[C@H](CC(C)C)N2C1=O` (stereo partly drawn) [Compound I-147, (3R,6S)-3,6-diisobutyl-1-(3-phenylpropyl)-8-(piperidin-4-yl)tetrahydropyrazino[2,1-c][1,2,4]oxadiazine-4,7(3H,6H)-dione], the inhibition at 10 µM was 50.2%.

Turning to `COC(=O)N1O[C@H](Cc2ccc(O)cc2)C(=O)N2C1CN(CCc1cccc3ccccc13)C(=O)[C@@H]2C` (stereo partly drawn) [Compound I-43, (3R,6S)-methyl 3-(4-hydroxybenzyl)-6-methyl-8-(2-(naphthalen-1-yl)ethyl)-4,7-dioxohexahydropyrazino[2,1-c][1,2,4]oxadiazine-1(6H)-carboxylate], the inhibition at 10 µM stood at 52.9%. Still for that read-out and setting: with `CC(C)CCNC(=O)[C@H](Cc1ccccc1)N1CC2N(C(=O)OCCc3ccccc3)O[C@H](CCC(N)=O)C(=O)N2[C@@H](Cc2ccccc2)C1=O` (stereo partly drawn) [Compound I-90, phenethyl (3R,6S)-3-(3-amino-3-oxopropyl)-6-benzyl-8-((S)-1-(isopentylamino)-1-oxo-3-phenylpropan-2-yl)-4,7-dioxohexahydropyrazino[2,1-c][1,2,4]oxadiazine-1(6H)-carboxylate] the figure was 62.4%; with `O=C(NCCCO)[C@H](Cc1ccccc1)N1CC2N(C(=O)OCCc3ccc(O)cc3)O[C@H](Cc3ccccc3)C(=O)N2[C@@H](Cc2ccccc2)C1=O` (stereo partly drawn) [Compound I-81, 4-hydroxyphenethyl (3R,6S)-3,6-dibenzyl-8-((S)-1-((3-hydroxypropyl)amino)-1-oxo-3-phenylpropan-2-yl)-4,7-dioxohexahydro-pyrazino[2,1-c] [1,2,4]oxadiazine-1(6H)-carboxylate], 53%. Still for that read-out and setting: with `CC(C)CCNC(=O)[C@H](CC(C)C)N1CC2N(C(=O)OCCc3ccc(O)cc3)O[C@H](CC(C)C)C(=O)N2[C@@H](Cc2ccc(O)cc2)C1=O` (stereo partly drawn) [Compound I-91, 4-hydroxyphenethyl (3R,6S)-6-(4-hydroxybenzyl)-3-isobutyl-8-((S)-1-(isopentylamino)-4-methyl-1-oxopentan-2-yl)-4,7-dioxohexahydropyrazino[2,1-c][1,2,4]oxadiazine-1(6H)-carboxylate] the figure was 51%. In the case of `CCCC[C@@H](C(=O)NCCC(C)C)N1CC2N(C(=O)OCCc3ccccc3)O[C@H](Cc3ccccc3)C(=O)N2[C@@H](Cc2ccccc2)C1=O` (stereo partly drawn) [Compound I-82, phenethyl (3R,6S)-3,6-dibenzyl-8-((S)-1-(isopentylamino)-1-oxohexan-2-yl)-4,7-dioxohexahydro-pyrazino[2,1-c] [1,2,4]oxadiazine-1(6H)-carboxylate], the inhibition at 10 µM came to 51.2%. Still for that read-out and setting: with `CC(C)CCNC(=O)[C@H](CC(C)C)N1CC2N(C(=O)OCCc3ccc(O)cc3)O[C@H](Cc3ccccc3)C(=O)N2[C@@H](C)C1=O` (stereo partly drawn) [Compound I-120, 4-hydroxyphenethyl (3R,6S)-3-benzyl-8-((S)-1-(isopentylamino)-4-methyl-1-oxopentan-2-yl)-6-methyl-4,7-dioxohexahydropyrazino [2,1-c][1,2,4]oxadiazine-1(6H)-carboxylate] the figure was 67.1%. On the same count and under the same terms, the result for `CC(C)C[C@H]1ON(C(=O)OCC2CCCCC2)C2CN(CCc3ccccc3)C(=O)[C@H](CCCCN)N2C1=O` (stereo partly drawn) [Compound I-30, (3R,6S)-cyclohexylmethyl 6-(4-aminobutyl)-3-isobutyl-4,7-dioxo-8-phenethylhexahydropyrazino [2,1-c][1,2,4]oxadiazine-1(6H)-carboxylate] reads 117%.
